Data set [1] is described as follows: Inhibition of myomiRs (unknown origin).
A short description of data set [2]: Inhibition of miR-206 (unknown origin).
The nature of data set [3]: Inhibition of miR-122 (unknown origin).
Data set [4] is described as follows: Inhibition of mature miR-122 (unknown origin) at 10 uM relative to control.
For another data set, the system named is Hepatitis C virus. The data set is described as follows: Antiviral activity against HCV. The class given is functional, Hepacivirus hominis.
In the next data set the test system is Huh7 (Homo sapiens). The data set is described as follows: Inhibition of miR-122 in human Huh7 cells assessed as fold increase at 10 uM by luciferase signal.
A short description of data set [5]: Inhibition of miR-210 (unknown origin).
Data set [6] in a line: Effect on pre-miR-210 in human MDA-MB-231 cells assessed as fold increase at 200 nM. In kind it is functional.
Data set [7] can be described thus: Effect on pri-miR-210 in human MDA-MB-231 cells assessed as fold increase at 200 nM. The class given is functional.
A short description of data set [8]: In vivo inhibition of miR-210 in human MDA-MB-231 cells xenografted with SCID mouse assessed as reduction in protein level under hypoxia condition relative to control. The class given is functional. More on the design: scale not given: the % may be the effect or the level left. On the technique in general: Xenograft models place foreign cells or tissue in a host animal.

A short description of data set [9]: Upregulation of GPD1L in human MDA-MB-231 cells assessed as fold increase in expression level. In kind it is functional.
Data set [10] in a line: In vivo inhibition of miR-210 in human MDA-MB-231 cells xenografted with SCID mouse assessed as reduction in […] level at 20 pmol relative to control. More on the design: scale not given: the % may be the effect or the level left.
Data set [11] is described as follows: Induction of human MDA-MB-231 cells assessed as induces increasing in apoptotic rate by western blot analysis relative to control. In kind it is functional.
In the next data set the test system is pre-miR-544 (human). The data set is described as follows: Effect on pre-miR-544 in human MCF-10A cells assessed as fold increasing level.
For a further data set, the system named is miR-544 (human). The data set is described as follows: Effect on miR-544 in human MCF-10A cells assessed as reduction in expression level relative to control. More on the design: scale not given: the % may be the effect or the level left.
Data set [12] in a line: Activation of miR-122 (unknown origin) by luciferase assay.
The next data set has as its system HepG2. The data set is described as follows: Cytotoxicity against human HepG2 cells assessed as reduction in cell viability measured after 24 hrs at 10 uM relative to control. The class given is toxicity, cell-based. To be noted: hepg2, 24 h.
Data set [13] can be described thus: Activation of miRNA (unknown origin).
The next data set relates to HCT-116. The data set is described as follows: Antiproliferative activity against human HCT-116 cells assessed as reduction in cell viability measured after 72 hrs by MTT assay. The class given is functional, cell-based. To be noted: HCT-116, 72 h. For orientation: Tetrazolium dyes change colour on reduction, which living cells bring about.
For data set [14], the system named is MCF7. The data set is described as follows: Inhibition of miR-21 in human MCF7 cells assessed as fold increase at 10 uM by luciferase signalling assay. In kind it is cell-based.
Data set [15] concerns MCF7. The data set is described as follows: Inhibition of miR-21 in human MCF7 cells assessed as fold increase in PDCD4 protein level. In kind it is cell-based.
Data set [16] deals with MCF7. The data set is described as follows: Induction of apoptosis human MCF7 cells at 5 uM assessed as fold increase in apoptotic rate. In kind it is functional.
Data set [17] in a line: Inhibition of miR-21 in human HeLa cells assessed as inhibition. In kind it is cell-based.
In another data set the test system is HeLa. The data set is described as follows: Inhibition of pri-miR-21 in human HeLa cells assessed as reduction in expression level at 10 uM relative to control. In kind it is cell-based.
Data set [18] is described as follows: Inhibition of miRNA (unknown origin).
Data set [19] is described as follows: Inhibition of miRNA (unknown origin) by fluorescence polarization assay.
The nature of data set [20]: Effect on miR-96 in human MCF7 cells assessed as decrease in expression level at 40 uM relative to control. In kind it is functional. More on the design: scale not given: the % may be the effect or the level left.
For data set [21], the system named is MCF7. The data set is described as follows: Inhibition of miR-27a (unknown origin) transfected in human MCF7 cells assessed as fold increase at 20 uM by luciferase assay. The class given is cell-based.
Data set [22] in a line: Inhibition of miR-122 (unknown origin) by luciferase signalling.
A short description of data set [23]: Inhibition of pri-miR-122 (unknown origin) at 10 uM relative to control.

Experimental findings from ChEMBL document CHEMBL5244200, “MicroRNAs as novel endogenous targets for regulation and therapeutic treatments” (Medchemcomm, 2018) are described below.

For orientation: IC50 means the concentration that gives 50% inhibition. The term inhibition denotes how much of the control response was suppressed. As a reminder, the EC50 is the midpoint of the concentration-response curve.

SMILES strings stand for the structures.

Turning to `COC12C(=O)c3ccccc3C(=O)C1C(c1ccccc1)=C2c1ccc(OC(=O)OC(C)(C)C)c2ncccc12` (configuration not stated), the IC50 in data set [1] is 2500 nM; in data set [2], 5000 nM.

For the compound `O=C(Nc1ccc2ccccc2c1)c1ccc(Cl)cc1Cl`, the half-maximal inhibitory concentration (IC50) in [3] was found to be 3000 nM. Further, the inhibition in data set [4] was determined as 50%. In the data set with Hepatitis C virus, this compound gave an Activity of 50%. In the data set with Huh7 (Homo sapiens), the fold change (FC) was determined as 7.7.

`CN1CCN(c2ccc3nc(-c4ccc5[nH]c(-c6cccc(OCCCC(=O)NCCN=[N+]=[N-])c6)nc5c4)[nH]c3c2)CC1` registered an IC50 in [5] of 200 nM. Moreover, the “fold change (FC)” value in [6] was 2.6; in data set [7], 3; in data set [9], 5. Further, the Activity is on record as 90% in [8] and 75% in data set [10].

With `N#Cc1c(N2CCCC2)nc(N)c2c(N)nc(N3CCCC3)cc12`, the figures for the Activity (in data set [11]; in the data set on miR-544 (human)) were 60% and 90%, respectively. Besides, the “fold change (FC)” value with pre-miR-544 (human) is recorded as 2.

In [12], `CN(C)CCN1C(=O)c2cccc3cccc(c23)C1=O` yielded an EC50 of 3000 nM. Besides, the Activity in the data set on HepG2 amounted to 80%.

With `CCn1cc(C(=O)O)c(=O)c2cc(F)c(N3CCNCC3)nc21` [ENOXACIN], the EC50 in data set [13] was found to be 30000 nM; in the data set on HCT-116, 124000 nM.

Take `CN[C@@H]1[C@H](O[C@H]2[C@H](O[C@H]3[C@H](O)[C@@H](O)[C@H](N=C(N)N)[C@@H](O)[C@@H]3N=C(N)N)O[C@@H](C)[C@]2(O)C=O)O[C@@H](CO)[C@H](O)[C@H]1O` [STREPTOMYCIN]: the results for the fold change (FC) in the data set with MCF7 [14], in the data set with MCF7 [15] and in the data set with MCF7 [16] were 1.4, 2 and 2, respectively.

In the case of `C#CCNC(=O)c1ccc(/N=N/c2ccc(N)cc2)cc1`, in data set [17], the EC50 came out at 2000 nM. In addition, the inhibition in the data set on HeLa is 80%.

On to `O=C(O)C1=CC(=C(c2ccc(O)c(C(=O)O)c2)c2ccc(O)c(C(=O)O)c2)C=CC1=O` [AURINTRICARBOXYLIC ACID], for which the IC50 in data set [18] and in data set [19] was 470 nM throughout.

With `CN1CCN(c2ccc3nc(-c4cc(C(C)(C)C)c(OCCCC(=O)NCCCN=[N+]=[N-])c(C(C)(C)C)c4)[nH]c3c2)CC1`, the Activity in data set [20] is on record as 90%.

Take `NC[C@@H]1O[C@H](O[C@H]2[C@@H](O)[C@H](O[C@@H]3[C@@H](O)[C@H](N)C[C@H](N)[C@H]3O[C@H]3O[C@H](CN)[C@@H](O)[C@H](O)[C@H]3N)O[C@@H]2CO)[C@H](N)[C@@H](O)[C@@H]1O`: the fold change (FC) in the data set with MCF7 [21] turned out to be 1.2.

`O=S(=O)(c1ccc2c(c1)CCCN2)N1CCC[C@H]2CCCC[C@@H]21` yielded an IC50 in data set [22] of 600 nM. Also, the inhibition in data set [23] came out at 90%. Further, in the data set on Hepatitis C virus, the Activity came to 50%. Moreover, the fold change (FC) in the data set with Huh7 (Homo sapiens) amounted to 12.5.
